Results on 5 molecules are retold here after US8080252B2, “Compounds and methods of modulating angiogenesis” (The Cleveland Clinic Foundation, priority 2006, dated 2011).

Experiment [1] relates to cells expressing αvβ3 integrin and VEGFR2. Kind of experiment: Angiogenesis of cells expressing αvβ3 integrin and VEGFR2 with stimulating peptides. In kind it is cell-based. The conditions noted are these: both in the presence and the absence of VEGF.
The test system of experiment [2] is HUVECs (Human Umbilical vascular endothelial cells). The note with it: HUVECs on Matrigel, 8 h. From the text:
The tube formation was observed using an inverted phase contrast microscope (Leica) and photographs were taken from each well. Using ImagePro software, the degree of tube formation was quantified by measuring the length of tubes in random fields.

For experiment [3], the target named is T1, αvβ3 integrin (Homo sapiens, UniProt P05106+P06756).
T1 construct: Semiconfluent HUVECs were serum starved for 4 h and further stimulated with 20 ng/mL VEGF-A165 or VEGFDΔNΔC; endogenous in cells; host or cells: HUVEC
Kind of experiment: WOW-1 binding assay in HUVECs (αvβ3 integrin activation, FACS). In kind it is cell-based. The note with it: 20 ng/mL. Here is the method: Semiconfluent HUVECs were serum starved for 4 h and further stimulated with 20 ng/mL VEGF-A165 or VEGFDΔNΔC. WOW-1 Fab was added to a final concentration of 30 μg/mL, followed by addition of FITC-conjugated goat anti-mouse IgG at 10 μg/mL. After 30 min cells were fixed with 3.7% formaldehyde in PBS for 15 min, washed twice with PBS, and fluorescence-activated cell sorting (FACS) was performed using a FACS Calibur (Becton Dickinson, San Jose, Calif.) and data were analyzed using CellQuest software.
Semiconfluent HUVECs were transfected with various forms of c-Src or Src++. SYF, SYF+Src cells were serum starved for 4 h and further stimulated with 20 ng/mL VEGF-A165 or b-FGF. WOW-1 Fab was added at a final concentration of 30 μg/mL, followed by addition of FITC-conjugated goat anti-mouse IgG at 10 μg/mL. After 30 min cells were fixed with 3.7% formaldehyde/PBS for 15 min, washed twice with PBS, and FACS analysis was performed as described above.

The subject of experiment [4] is mouse lung endothelial cells. The note with it: 20 ng/ml VEGF, 8 h. Here is the method: The formation of vascular tube-like structures by wild type and DiYF mouse lung endothelial cells were assessed on the basement membrane matrix preparation. Six well plates were coated with 0.5 ml of Matrigel according to the manufacturer's instructions. Wild type and DiYF mouse lung endothelial cells were detached from the tissue culture flasks using 20 mM EDTA. Cells were washed twice with sterile 1×PBS and seeded on Matrigel coated plate. Medium was supplemented with or without 20 ng/ml VEGF and further incubated at 37° C. for 8 h. The tube formation was observed using an inverted phase contrast microscope (Leica) and photographs were taken from each well. Using ImagePro software, the degree of tube formation was quantified by measuring the length of tubes in random fields.

Experiment [5] concerns mouse lung endothelial cells. The note with it: WT EC. As to the method:
Transwell tissue culture inserts were coated with various integrin ligands for 24 h at 4° C. Both WT and DiYF lung endothelial cells were trypsinized and 1×10^5 cells were added into each well. The lower chamber contained varying concentrations of VEGF-A165 (0-20 ng/ml). Cells were allowed to migrate for 12 h and fixed with 3.7% formaldehyde/PBS for 15 min and stained with 0.5% crystal violet. The non-migrated cells adhered to the top surface were removed and three random 10× fields were photographed using Leica inverted phase contrast microscope.

A further experiment concerns the target T2, VEGFR-2 (Mus musculus, UniProt P35918).
T2 construct: Serum starved wild type and DiYF endothelial cells were also treated with 20 ng/ml VEGF for 0-60 mins; endogenous in cells; host or cells: primary mouse lung endothelial cells (WT and DiYF knock-in, C57/Bl6)
Kind of experiment: VEGFR-2 phosphorylation time course in WT and DiYF mouse endothelial cells. In kind it is cell-based. The note with it: 20 ng/ml VEGF. As to the method: Serum starved wild type and DiYF endothelial cells were also treated with 20 ng/ml VEGF for 0-60 mins. Cell lysates were analyzed by Western blot using anti-integrin β3 [pY^747], anti-integrin [pY^759], anti-p-VEGFR-2, anti-VEGFR-2, anti-p-ERK1/2, anti-ERK1/2, anti-p-Akt, anti-Akt, anti-p-P38MAPK and anti-MAPK antibody. The wild type and DiYF endothelial cells were lysed and equal proteins from total cell lysates were subjected SDS-PAGS and analyzed by western blot using anti-VEGFR-2 and anti-CD-31 antibody.

Experiment [6] concerns αvβ3 integrin. As to the kind of experiment: Fibrinogen binding assay, WT and DiYF mouse lung endothelial cells (FACS). The class given is cell-based. The note with it: 20 ng/ml VEGF or 1 mM MnCl2. As to the method:
To assess fibrinogen binding, semiconfluent wild type and DiYF mouse lung endothelial cells were serum starved for 4 h and further induced with 20 ng/ml VEGF-165, 20 ng/ml b-FGF or 1 mm MnCl2. Fluorescein isothiocyanate (FITC)-labeled fibrinogen was added at a final concentration of 200 nM for 45 min. […] Fluorescence-activated cell sorting (FACS) was performed using a FACS Calibur (Becton Dickinson, San Jose, Calif.) and data were analyzed using CellQuest software program.

For experiment [7], the system named is αvβ3 integrin. Kind of experiment: WOW-1 binding assay, WT and DiYF mouse lung endothelial cells (FACS). The class given is cell-based. The note with it: 20 ng/ml VEGF or 1 mM MnCl2. Here is the method:
Wild type and DiYF mouse lung endothelial cells were serum starved for 4 h and further stimulated with 20 ng/ml VEGF-165, 20 ng/ml b-FGF or 1 mm MnCl2 separately. WoW-1 Fab was added at a final concentration of […], followed by addition of Fluorescein isothiocyanate (FITC) conjugated goat anti-mouse IgG at 10 μg/ml. After 30 min cells were fixed with 3.7% formaldehyde/PBS for 15 min, washed twice with 1×PBS and FACS was performed using a FACS Calibur (Becton Dickinson, San Jose, Calif.) instrument and data were analyzed using CellQuest software program.

Experiment [8] deals with mouse lung microvascular endothelial cells.
Description: To assess the role of Src-mediated β3 integrin tyrosine phosphorylation in αvβ3 integrin dependent EC migration, HUVECs transfected with various forms of Src were evaluated in migration assays using VEGF as an agonist and vitronectin as a substrate. […] To further evaluate the c-Src mediated β3 integrin cytoplasmic tyrosine motifs phosphorylation in αvβ3 integrin dependent endothelial cell migration, wild type and DiYF mouse lung microvascular endothelial cells were transfected with wild type, dominant negative and catalytically active form of c-Src and stimulated with VEGF (FIG. 23 B).
Transwell tissue culture inserts were coated with αvβ3 integrin ligand vitronectin for 24 h at 4° C. Endothelial cells were transfected with various forms of c-Src or treated with inhibitors and were trypsinized; then 1×10^5 cells were added into each well. Cells were allowed to migrate for 12 h and fixed with 70% methanol for 15 min and stained with Giemsa. The non-migrated cells adhered to the top surface were removed and three random 10× fields were photographed using an inverted phase contrast microscopy.
A further experiment relates to β3 integrin. As to the kind of experiment: β3 integrin tyrosine phosphorylation (Tyr-747 and 759) in HUVECs, Western blot. The class given is cell-based, Human. The note with it: serum starved HUVECs, 400 nm and 800 nm SU1498. Here is the method: αvβ3 integrin is expressed on proliferating endothelial cells during angiogenesis and vascular remodeling and the blockade of αvβ3 integrin suppressed angiogenesis in several in vivo models. Therefore, we assessed whether the blockade of αvβ3 affected tyrosine phosphorylation of β3 subunit. […] Cells were also treated with non-immune IgG as control. These cells were washed and further induced with VEGF for 5 min at 37° C. Cell lysates were analyzed for phosphorylation of β3 integrin (Tyr-747 and 759). […] Basal level of β3 integrin tyrosine phosphorylation remains unaffected irrespective of different blocking antibody treatment. To further examine consequences of αvβ3 integrin blocking antibodies, cell lysates were analyzed for tyrosine phosphorylation of VEGFR-2 (Tyr-1175).
Cytoplasmic domains of integrin β subunits are highly conserved and represents region of structural homology between the various groups. […] Cell lysates were analyzed for the phosphorylation of β3 integrin. […]
Cells were lysed in immunoprecipitation lysis buffer (1% Noniodet P-40, 150 mM NaCl, 50 mM Tris-HCL (pH 7.8), 2 mM EDTA, 10 mM NaF, 10 mM Na2P2O7, 2 mM Na3VO4 10 μg/mL leupeptin, 4 μg/mL pepstatin and 0.1 U/mL aprotinin). […] Bands were analyzed by densitomeric analysis using Kodak 1D software and fold changes were indicated.
(In western blotting, separated proteins are transferred to a membrane and probed.)

The next experiment has as its system HUVECs. Kind of experiment: Cell migration assay of HUVECs on vitronectin, VEGF as agonist (Example 5). The conditions noted are these: vitronectin as substrate. The class given is cell-based, Human.

Read-outs that look alike come from different tables or passages of the source. Non-standard residues stand in square brackets, D forms with d. No end group written: not given here. pY = N[C@@H](Cc1ccc(OP(=O)(O)O)cc1)C(=O)O

T2 sequence (P35918 20-1345): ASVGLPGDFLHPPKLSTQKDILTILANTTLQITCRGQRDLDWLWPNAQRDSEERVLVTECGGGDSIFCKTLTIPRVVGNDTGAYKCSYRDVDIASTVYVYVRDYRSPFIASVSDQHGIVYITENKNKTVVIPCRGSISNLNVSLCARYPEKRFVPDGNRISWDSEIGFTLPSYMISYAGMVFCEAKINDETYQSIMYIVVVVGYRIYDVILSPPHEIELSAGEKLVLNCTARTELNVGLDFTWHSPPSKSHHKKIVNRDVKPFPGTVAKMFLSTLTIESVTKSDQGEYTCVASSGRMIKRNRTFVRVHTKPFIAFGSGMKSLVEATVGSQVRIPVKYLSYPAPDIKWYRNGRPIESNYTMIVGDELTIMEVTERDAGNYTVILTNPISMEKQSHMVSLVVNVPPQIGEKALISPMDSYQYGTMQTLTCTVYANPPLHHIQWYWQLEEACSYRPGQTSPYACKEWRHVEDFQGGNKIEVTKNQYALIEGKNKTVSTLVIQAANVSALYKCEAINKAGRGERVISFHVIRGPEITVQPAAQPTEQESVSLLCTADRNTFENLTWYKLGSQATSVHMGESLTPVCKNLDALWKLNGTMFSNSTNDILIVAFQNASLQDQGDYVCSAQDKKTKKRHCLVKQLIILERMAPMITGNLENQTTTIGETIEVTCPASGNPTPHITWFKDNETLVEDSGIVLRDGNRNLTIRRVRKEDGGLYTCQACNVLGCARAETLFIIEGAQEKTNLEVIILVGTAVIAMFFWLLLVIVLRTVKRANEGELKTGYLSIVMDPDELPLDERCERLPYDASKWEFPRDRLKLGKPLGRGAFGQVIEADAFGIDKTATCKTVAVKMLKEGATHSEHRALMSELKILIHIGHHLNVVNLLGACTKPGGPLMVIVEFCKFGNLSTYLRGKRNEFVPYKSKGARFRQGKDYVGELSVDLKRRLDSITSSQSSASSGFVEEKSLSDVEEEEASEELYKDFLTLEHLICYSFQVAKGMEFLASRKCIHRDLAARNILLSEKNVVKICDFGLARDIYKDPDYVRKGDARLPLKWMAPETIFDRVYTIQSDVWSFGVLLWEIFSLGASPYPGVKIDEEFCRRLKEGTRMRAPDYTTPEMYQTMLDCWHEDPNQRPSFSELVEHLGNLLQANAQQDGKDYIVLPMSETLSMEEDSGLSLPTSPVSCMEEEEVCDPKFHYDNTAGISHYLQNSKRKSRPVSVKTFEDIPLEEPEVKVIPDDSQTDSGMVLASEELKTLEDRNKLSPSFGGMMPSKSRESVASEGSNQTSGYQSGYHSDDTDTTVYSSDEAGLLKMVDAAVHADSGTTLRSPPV
T1 sequence (P06756 31-1048): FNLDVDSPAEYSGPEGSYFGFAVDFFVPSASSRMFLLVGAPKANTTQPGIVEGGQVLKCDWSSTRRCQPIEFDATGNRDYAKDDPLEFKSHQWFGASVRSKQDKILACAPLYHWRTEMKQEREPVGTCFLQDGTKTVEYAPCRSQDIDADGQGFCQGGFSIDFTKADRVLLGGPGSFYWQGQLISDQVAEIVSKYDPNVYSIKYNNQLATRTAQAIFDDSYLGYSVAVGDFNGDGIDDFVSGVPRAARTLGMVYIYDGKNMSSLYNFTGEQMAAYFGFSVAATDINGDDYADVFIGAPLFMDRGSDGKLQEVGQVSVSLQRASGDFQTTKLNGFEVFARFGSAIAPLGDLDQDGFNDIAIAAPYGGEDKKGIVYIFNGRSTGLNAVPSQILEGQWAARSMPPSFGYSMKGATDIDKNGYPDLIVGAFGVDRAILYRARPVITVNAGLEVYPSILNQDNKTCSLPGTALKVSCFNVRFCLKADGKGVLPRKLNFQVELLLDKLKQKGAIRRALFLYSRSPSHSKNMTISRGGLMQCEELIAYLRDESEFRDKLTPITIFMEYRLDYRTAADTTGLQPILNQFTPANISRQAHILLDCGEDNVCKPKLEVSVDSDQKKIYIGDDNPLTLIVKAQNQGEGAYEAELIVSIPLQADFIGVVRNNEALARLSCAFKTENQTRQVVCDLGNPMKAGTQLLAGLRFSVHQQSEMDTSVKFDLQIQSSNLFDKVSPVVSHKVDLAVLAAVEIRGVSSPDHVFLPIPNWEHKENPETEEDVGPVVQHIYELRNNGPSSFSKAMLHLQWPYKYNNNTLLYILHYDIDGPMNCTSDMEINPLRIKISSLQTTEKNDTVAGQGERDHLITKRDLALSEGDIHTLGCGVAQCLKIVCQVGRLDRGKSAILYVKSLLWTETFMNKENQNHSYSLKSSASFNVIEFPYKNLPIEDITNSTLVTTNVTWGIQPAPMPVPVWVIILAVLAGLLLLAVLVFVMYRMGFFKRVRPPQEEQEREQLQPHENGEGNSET
T1 sequence (P05106 27-788): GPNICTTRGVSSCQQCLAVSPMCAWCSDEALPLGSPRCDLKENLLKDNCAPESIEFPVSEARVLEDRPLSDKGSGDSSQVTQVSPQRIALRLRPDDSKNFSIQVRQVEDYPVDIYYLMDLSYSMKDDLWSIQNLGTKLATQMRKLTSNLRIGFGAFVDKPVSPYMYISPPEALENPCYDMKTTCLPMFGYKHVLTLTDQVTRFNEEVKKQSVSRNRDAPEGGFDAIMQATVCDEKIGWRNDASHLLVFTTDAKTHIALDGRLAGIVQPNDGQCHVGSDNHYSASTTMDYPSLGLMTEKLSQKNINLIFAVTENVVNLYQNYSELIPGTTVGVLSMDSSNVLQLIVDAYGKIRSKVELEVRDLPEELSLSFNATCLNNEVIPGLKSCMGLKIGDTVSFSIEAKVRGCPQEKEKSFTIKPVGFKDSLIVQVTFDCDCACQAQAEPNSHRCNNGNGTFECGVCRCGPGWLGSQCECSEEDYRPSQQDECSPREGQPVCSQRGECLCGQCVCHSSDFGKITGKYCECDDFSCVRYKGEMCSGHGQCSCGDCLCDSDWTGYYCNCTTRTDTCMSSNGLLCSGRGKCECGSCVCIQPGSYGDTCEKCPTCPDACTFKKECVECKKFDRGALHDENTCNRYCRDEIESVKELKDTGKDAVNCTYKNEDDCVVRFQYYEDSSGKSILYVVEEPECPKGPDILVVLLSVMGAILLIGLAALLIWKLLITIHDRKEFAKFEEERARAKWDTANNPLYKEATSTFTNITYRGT

As to “YGRKKRRQRRRGKEATSTFTNITYpRGT-COOH (YGRKKRRQRRRGKEATSTFTNIT[pY]RGT-OH; N-terminus assumed; SMILES CC[C@H](C)[C@H](NC(=O)[C@H](CC(N)=O)NC(=O)[C@@H](NC(=O)[C@H](Cc1ccccc1)NC(=O)[C@@H](NC(=O)[C@H](CO)NC(=O)[C@@H](NC(=O)[C@H](C)NC(=O)[C@H](CCC(=O)O)NC(=O)[C@H](CCCCN)NC(=O)CNC(=O)[C@H](CCCNC(=N)N)NC(=O)[C@H](CCCNC(=N)N)NC(=O)[C@H](CCCNC(=N)N)NC(=O)[C@H](CCC(N)=O)NC(=O)[C@H](CCCNC(=N)N)NC(=O)[C@H](CCCNC(=N)N)NC(=O)[C@H](CCCCN)NC(=O)[C@H](CCCCN)NC(=O)[C@H](CCCNC(=N)N)NC(=O)CNC(=O)[C@@H](N)Cc1ccc(O)cc1)[C@@H](C)O)[C@@H](C)O)[C@@H](C)O)C(=O)N[C@H](C(=O)N[C@@H](Cc1ccc(OP(=O)(O)O)cc1)C(=O)N[C@@H](CCCNC(=N)N)C(=O)NCC(=O)N[C@H](C(=O)O)[C@@H](C)O)[C@@H](C)O; listed as Homo sapiens) [SEQ ID NO: 13, stimulating peptide]”, in experiment [1], the effect on angiogenesis entry is reported as “promote angiogenesis”.

In the case of “KEATSTFTNITYpRGT-COOH (KEATSTFTNIT[pY]RGT-OH; N-terminus assumed; SMILES CC[C@H](C)[C@H](NC(=O)[C@H](CC(N)=O)NC(=O)[C@@H](NC(=O)[C@H](Cc1ccccc1)NC(=O)[C@@H](NC(=O)[C@H](CO)NC(=O)[C@@H](NC(=O)[C@H](C)NC(=O)[C@H](CCC(=O)O)NC(=O)[C@@H](N)CCCCN)[C@@H](C)O)[C@@H](C)O)[C@@H](C)O)C(=O)N[C@H](C(=O)N[C@@H](Cc1ccc(OP(=O)(O)O)cc1)C(=O)N[C@@H](CCCNC(=N)N)C(=O)NCC(=O)N[C@H](C(=O)O)[C@@H](C)O)[C@@H](C)O; listed as Homo sapiens) [SEQ ID NO: 15, stimulating peptide; β3 integrin cytoplasmic peptide specific for tyrosine-759]”, the effect on angiogenesis result in experiment [1] is “promote angiogenesis”.

Regarding VEGF, the “endothelial cell tube formation induced” value in [2] is listed as “at least 450 μm/mm^2”. Moreover, the “increase of WOW-1 binding to EC compared to resting cells” value at αvβ3 integrin [3] was 6 fold. For the same molecule, in [4] (DiYF EC), the “effect on the length of the tubes” value was “little effect”. Also, the “increase in the length of the tubes” value in experiment [4] (WT EC) was “about 3 fold”. Besides, the “increase of migration compared to untreated EC” value in experiment [5] (VEGF 5 ng/ml) stood at 1.5 fold; in experiment [5] (VEGF 10 ng/ml), 2.5 fold; in [5] (VEGF 20 ng/ml), 2.9 fold. Besides, the “maximum increase in VEGFR-2 phosphorylation over control” value at VEGFR-2 (DiYF EC) is 2.5 fold; on VEGFR-2 (WT EC), 6 fold. Also, the “increase of fibrinogen binding” value with αvβ3 integrin [6] (DiYF EC) was 3 fold; with αvβ3 integrin [6] (WT EC), “at least 6 fold”. For the same molecule, the figures for the “increase in WOW-1 binding” value with αvβ3 integrin [7] (DiYF EC) and with αvβ3 integrin [7] (WT EC) were 3.5 fold and 9 fold, respectively. Moreover, the entries for the “increase in endothelial cell migration” value in [8] (CA-Src transfected wild type endothelial cells) and in experiment [8] (WT-Src transfected wild type endothelial cells) were 3.5 fold and 2.5 fold, respectively.

Take `CC(C)c1cc(/C=C(\C#N)C(=O)NCCCc2ccccc2)cc(C(C)C)c1O` [SU1498]: in the experiment on β3 integrin, the “effect on VEGF induced β3 integrin cytoplasmic tyrosine residue phosphorylation” value is listed as “significantly reduced”. In addition, the “effect on EC migration triggered by VEGF” value in the experiment on HUVECs is on record as “reduced EC migration triggered by VEGF”.

For `[Cl][Mn][Cl]` [MnCl2, reference compound], the “increase of fibrinogen binding” value with αvβ3 integrin [6] (DiYF EC) is 17 fold; with αvβ3 integrin [6] (WT EC), “at least 40 fold”. Also, the “increase in WOW-1 binding” value with αvβ3 integrin [7] (DiYF EC) worked out at 14 fold; in the experiment with αvβ3 integrin [7] (WT EC), 30 fold.
